Measured values published in ChEMBL document CHEMBL1221220, “Transport and signaling via the amino acid binding site of the yeast Gap1 amino acid transceptor” (Nat Chem Biol, 2009).
Active and inactive are the calls of the source. The rule behind the calls is not given here. Residues, ends and D or L forms follow the SMILES beside them.

T1: General amino-acid permease GAP1 (Saccharomyces cerevisiae) (UniProt P19145)
T1 sequence (whole entry): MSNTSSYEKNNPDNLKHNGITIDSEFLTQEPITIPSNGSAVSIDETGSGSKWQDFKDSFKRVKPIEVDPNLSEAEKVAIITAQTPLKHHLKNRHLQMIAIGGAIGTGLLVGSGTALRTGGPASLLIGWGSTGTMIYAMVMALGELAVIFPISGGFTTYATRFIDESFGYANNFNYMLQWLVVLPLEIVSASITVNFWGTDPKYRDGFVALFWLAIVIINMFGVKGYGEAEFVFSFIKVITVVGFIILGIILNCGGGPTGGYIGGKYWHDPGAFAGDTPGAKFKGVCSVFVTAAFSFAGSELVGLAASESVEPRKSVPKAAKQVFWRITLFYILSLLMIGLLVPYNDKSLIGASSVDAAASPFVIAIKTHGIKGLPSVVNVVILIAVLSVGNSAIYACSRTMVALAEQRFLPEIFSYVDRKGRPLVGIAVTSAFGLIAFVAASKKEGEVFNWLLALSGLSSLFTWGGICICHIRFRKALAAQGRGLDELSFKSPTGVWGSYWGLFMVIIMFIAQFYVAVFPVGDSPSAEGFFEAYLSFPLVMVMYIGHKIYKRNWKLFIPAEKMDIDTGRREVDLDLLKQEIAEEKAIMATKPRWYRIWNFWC

T2: General amino-acid permease GAP1 (Saccharomyces cerevisiae, UniProt P19145)
T2 sequence (P19145 whole entry): T1 sequence (whole entry)

B1: General amino-acid permease GAP1 (Saccharomyces cerevisiae), P19145 (protein)
chain: T1 sequence (whole entry)

How the values were obtained:
[1] = target: T1, General amino-acid permease GAP1 (Saccharomyces cerevisiae); assay: Induction of nitrogen-starved wild type sigma1278b yeast Gap1-mediated amino acid uptake at 5 mM after 90 mins
[2] = target: T2, General amino-acid permease GAP1; assay: Competitive inhibition of nitrogen-starved wild type sigma1278b yeast Gap1 by Lineweaver-Burke plot analysis
[3] = target: T1, General amino-acid permease GAP1 (Saccharomyces cerevisiae); assay: Induction of nitrogen-starved wild type sigma1278b yeast Gap1-mediated […] activation at 5 mM
[4] = target: T1, General amino-acid permease GAP1 (Saccharomyces cerevisiae); assay: Induction of nitrogen-starved wild type sigma1278b yeast Gap1-mediated […] activation at 5 mM in presence of 10 mM MTSEA treated before compound addition
[5] = target: T1, General amino-acid permease GAP1 (Saccharomyces cerevisiae); assay: Competitive inhibition of nitrogen-starved wild type sigma1278b yeast Gap1-mediated amino acid uptake at 5 mM after 60 secs relative to L-citrulline
[6] = target: T1, General amino-acid permease GAP1 (Saccharomyces cerevisiae); assay: Induction of nitrogen-starved wild type sigma1278b yeast Gap1-mediated […] activation at 10 mM
[7] = target: T1, General amino-acid permease GAP1 (Saccharomyces cerevisiae); assay: Noncompetitive inhibition of nitrogen-starved wild type sigma1278b yeast Gap1-mediated amino acid uptake at 5 mM after 60 secs relative to L-citrulline
[8] = target: T2, General amino-acid permease GAP1; assay: Noncompetitive inhibition of nitrogen-starved wild type sigma1278b Gap1-mediated amino acid transport by Lineweaver-Burke plot analysis
[9] = target: T1, General amino-acid permease GAP1 (Saccharomyces cerevisiae); assay: Inhibition of L-Arg-L-Gly-L-Gly-induced nitrogen-starved wild type sigma1278b yeast Gap1
[10] = target: T1, General amino-acid permease GAP1 (Saccharomyces cerevisiae); assay: Inhibition of nitrogen-starved wild type sigma1278b yeast Gap1 assessed as reduction of L-citrulline-mediated trehalose activation at 5 to 10 mM
[11] = substrate: NC(=O)NCCC[C@H](N)C(=O)O; assay: Activity at nitrogen-starved wild type sigma1278b Gap1; conditions: Saccharomyces cerevisiae

Molecule	Activity [6]	inhibition [7] [%]	also measured
CC(C)C[C@H](N)C(=O)NCC(=O)O (H-Leu-Gly-OH)			Activity [1]: inactive; Ki [2]: 0.19 mM; Activity [3]: Active; Activity [4]: inactive; inhibition [5]: > 30%
N[C@@H](Cc1c[nH]c2ccccc12)C(=O)O	inactive		
N[C@@H](CC(=O)O)C(=O)O	Active		
N[C@@H](Cc1ccccc1)C(=O)O	Active		
N[C@@H](CCC(=O)O)C(=O)O	Active		
N[C@@H](CO)C(=O)O	Active		
N=C(N)NCCC[C@H](N)C(=O)N[C@@H](Cc1ccccc1)C(=O)N[C@@H](Cc1ccccc1)C(=O)O (H-Arg-Phe-Phe-OH)	Active	> 30	Ki [8]: 12 mM
C[C@H](N)C(=O)NCC(=O)N[C@@H](C)C(=O)O (H-Ala-Gly-Ala-OH)		> 30	
NCCCC[C@H](N)C(=O)O	inactive		
N[C@@H](Cc1c[nH]cn1)C(=O)O	inactive		
CC(C)[C@H](NC(=O)CNC(=O)[C@H](C)N)C(=O)O (H-Ala-Gly-Val-OH)		> 30	
C[C@@H](O)[C@H](N)C(=O)O	Active		
CSCC[C@H](NC(=O)[C@@H](N)CC(C)C)C(N)=O (H-Leu-Met-NH2)	inactive	> 30	Ki [8]: 5 mM
O=C(O)[C@@H]1CCCN1	Active		
CC(C)C[C@H](NC(=O)[C@H](C)N)C(=O)O (H-Ala-Leu-OH)		> 30	
CC(N)C(=O)NC(Cc1ccccc1)C(=O)O (racemic)		> 30	
CSCC[C@H](NC(=O)[C@@H](N)CC(C)C)C(=O)O (H-Leu-Met-OH)		15	
N[C@@H](CC(=O)O)C(=O)N[C@@H](Cc1ccccc1)C(=O)O (H-Asp-Phe-OH)			inhibition [5]: > 30%
CC(C)C[C@H](NC(=O)[C@@H](NC(=O)[C@@H](N)CC(C)C)C(C)C)C(=O)O (H-Leu-Val-Leu-OH)		15	
CC(C)C[C@H](NC(=O)[C@@H](N)CC(C)C)C(=O)N[C@@H](C)C(=O)O (H-Leu-Leu-Ala-OH)		15	
CC(C)C[C@H](NC(=O)[C@H](CC(C)C)NC(=O)[C@@H](N)CC(C)C)C(=O)O (H-Leu-Leu-Leu-OH)		15	
NC(N)=NCCC[C@H](N)C(=O)NCC(=O)O (H-Arg-Gly-OH)		> 30	
N[C@@H](CC(=O)N[C@@H](CCC(=O)O)c1ccccc1)C(=O)O			inhibition [9]: inactive; Activity [1]: inactive; Ki [2]: 0.105 mM; inhibition [10]: Active
B1			Km [11]: 37 µM
